A value given as a limit tells only on which side of the number the result lay.

Usually melting point stands for the temperature, or range, at which the solid turns liquid. Regarding `CCn1ncc2c3noc(-c4ccc(C(F)(F)F)cc4)c3cnc21`, the melting point lay in the range of 243 to 245 °C.

In the case of `C=CCN(c1ncnc2c1ncn2CC(C)O)C1CCCCC1` (centres undefined), the melting point is 108 to 110 °C.

Compound `OCCCCCCCCCCCCN1CCC(CNC[C@H](O)COc2cccc3[nH]c4ccccc4c23)CC1` had a melting point of 110 °C.

As for `C[C@@H](n1cnc2cc(NCc3ccccc3)ccc2c1=O)[C@](O)(Cn1cncn1)c1ccc(F)cc1F`, the melting point was in the range of 100 to 107 °C.

Compound `O=CNc1ccccc1CNC1CCC(=O)NC1=O` (centres undefined) came in with a melting point of 169 to 174 °C.

In the case of `COC1O[C@H](CC#N)[C@H](OCc2ccccc2)[C@H]1O` (some centres undefined), the melting point was in the range of 59 to 60 °C.

For `CC(C)(C)OC(=O)Nc1ccc(-c2ccccc2)cc1N`, the melting point was 137 °C.

With `Cn1cc(-c2cc(-c3cnc4ccccc4c3)ccn2)n(-c2ccc(C(C)(C)CN)cc2)c1=O`, the melting point is 132 °C.

As for `COc1ncc(CN2C(=O)C3(COc4cc5c(cc43)CCO5)c3ccccc32)cn1` (centres undefined), the melting point lay within 203 to 204 °C.

With `C=CCC(=O)NCCN1CCOc2ccc(OC)cc21`, the melting point lay within 80 to 81 °C.

Take `Cc1nc2ccc(NS(=O)(=O)c3cccc(Cl)c3C)cc2o1`: the melting point was in the range of 127 to 128 °C.

`CC(C)Cc1cc(S(=O)(=O)Cl)c(C(C)C)cc1Cl` returned a melting point of 90 to 94 °C.

As for `CCOC(=O)C(=CC=CN(CC)CCO)S(=O)(=O)c1ccccc1`, the melting point is 107 °C.

In turn, `CC(C)(C)OC(=O)NCCNc1nnc(N)s1` displayed a melting point of 219 to 220 °C.

In turn, `OC1CCc2c(Br)cccc21` (single isomer, unassigned; (-)) gave a melting point of 81 °C.

Compound `CON(C)C(=O)c1cc(C)c(C(c2cc(F)ccc2F)S(=O)(=O)c2ccc(F)cc2)cn1` (centres undefined) displayed a melting point of 156 to 158 °C.

Compound `COc1cc(-n2cnc3cc(-c4ccc(Cl)cc4)sc3c2=O)ccc1OCC1(OP(=O)(O)O)CC(F)(F)C1` came in with a melting point of 219 °C.

For `O=C1C(CSC(=O)c2ccccc2)=C(CSC(=O)c2ccccc2)C(=O)C(CSC(=O)c2ccccc2)=C1CSC(=O)c1ccccc1`, the melting point fell in the range of 224 to 226 °C.

In the case of `Cc1ccc(SCc2ccc(OC(F)(F)F)cc2)cc1`, the melting point fell in the range of 74 to 76 °C.

Regarding `Cc1[nH]ncc1C(=O)Nc1ccc(OCC(C)(C)C)c(C#N)c1`, the melting point lay within 133 to 134 °C.

For the compound `Cc1ccc(C2(C=O)C3CC4CC(C3)CC2C4)cc1` (centres undefined), the melting point fell in the range of 93 to 97 °C.

Regarding `COc1cc(OC)c2c(=O)cc(-c3nc4ccccc4[nH]3)oc2c1`, the melting point was in the range of 245 to 246 °C.

Compound `CCOc1nn(-c2c(Cl)cc(C(F)(F)F)cc2Cl)c(N)c1C(=O)c1cc(C)ccc1C` gave a melting point of 99 to 101 °C.

Turning to `CCOC(=O)c1cnc2c(C=O)cc(CN3CCOCC3)cc2c1O`, the melting point fell in the range of 202 to 204 °C.

With `CC(=O)Oc1ccc(C(=O)Nc2ccc(Cl)c(NC(=O)c3ccc(C#N)cc3)c2)cc1`, the melting point was 195 to 196 °C.

In the case of `N#Cc1ccc(-c2ccn(-c3ccc(C#N)cc3)c2)cc1`, the melting point was 234 to 240 °C.

`Cn1nc(N)c2sc3ncccc3c21` came in with a melting point of 194 to 196 °C.

In turn, `CCOCc1nc2c(N)nc(C)c(C)c2n1CCCNC(=O)C(C)C` gave a melting point of 179 to 180 °C.

Take `COc1ccc(C2NC(C(=O)O)CS2)cc1` (centres undefined): the melting point lay within 150 to 151 °C.

On to `Cc1cc2cc(CN3CCCC3)cnc2cc1NC(=O)c1ccc(-c2ccc(F)c(F)c2)cc1`, for which the melting point is 220 to 223 °C.

Compound `CC(C)CC(N)S(=O)(=O)O` (centres undefined) had a melting point of 142 to 144 °C.

In turn, `COc1c(F)cc2[nH]c(=O)c(=O)[nH]c2c1[N+](=O)[O-]` displayed a melting point of 290 to 292 °C.

With `CN(C)c1nccc2c1nnn2Cc1ccccc1F`, the melting point was 248 to 252 °C.

For the compound `COc1cc([N+](=O)[O-])c(NC(C)=O)cc1Cl`, the melting point was in the range of 152 to 153 °C.

`Cc1ccc(S(=O)(=O)N2CCCC2c2ccc(N(C)C)c(F)c2)cc1` (racemic): the melting point was found to be 66 °C.

As to `CS(=O)(=O)N1CCn2c(nc3c(N)nc4cc(Br)ccc4c32)C1`, the melting point was 315 to 317 °C.

`[N-]=[N+]=NC[C@H]1OC(O)[C@H](O)[C@@H](O)[C@@H]1O` (some centres undefined): the melting point lay in the range of 128 to 130 °C.

For the compound `COc1ccc(Cl)n2nc(S(=O)(=O)Nc3c(F)cccc3F)nc12`, the melting point fell in the range of 190 to 191 °C.

As to `Clc1ncnc(Cl)c1-c1ccc(-c2ccccc2)cc1`, the melting point turned out to be 144 °C.

With `C=CCNC(=O)N1CC(Oc2ccc(Br)cc2)C1`, the melting point lay in the range of 100 to 101 °C.

In turn, `NC(=O)CCc1ccnc(-c2nc(=O)c3ccccc3s2)c1` returned a melting point of 237 to 240 °C.

`COC(=O)c1c(Cl)c(Cl)c(Cl)c(Cl)c1C#N`: the melting point was in the range of 82 to 83 °C.

Take `CCC1CC(C)C(=O)C=C1c1ccc(OCC(=O)O)c(Cl)c1Cl` (centres undefined): the melting point was in the range of 99 to 100 °C.

As to `COc1ccccc1C1(Cl)C(=O)Nc2ccc(C)c(Cl)c21` (centres undefined), the melting point was 262 to 263 °C.

As to `C=Cc1ccc(OS(C)(=O)=O)cc1`, the melting point is 57 to 58 °C.

Take `CS(=O)(=O)c1ccc(-c2ccccc2C=O)cc1`: the melting point is 115 to 116 °C.

With `COc1ccc(C(Cc2ccc(NC(=O)OC(C)(C)C)cc2)c2ccccc2)cc1OC1CCCC1` (centres undefined), the melting point worked out at 123 °C.

`CCN(CC)CCCCOc1ccc(-c2nnc(CSCCOc3ccccc3)o2)cc1`: the melting point was in the range of 35 to 38 °C.

As to `CC(C)N(C1CCCCC1)S(=O)(=O)N[C@@H](Cc1ccc(Nc2nccc3cnccc23)cc1)C(=O)O`, the melting point is 162 °C.

Regarding `O=C(O)c1cnn2c(C(F)(F)F)cc(-c3ccc(Cl)c(Cl)c3)nc12`, the melting point is 264 °C.

In turn, `C[C@H](c1ccccc1)N(CC(=O)OC(C)(C)C)S(=O)(=O)c1ccc2c(Cl)cnc(NC(=N)N)c2c1` gave a melting point of 106 to 111 °C.

`Cc1cc(C)c(-c2cccc3c(O)cc(C)nc23)c(C)c1`: the melting point is > 250 °C.

`CNC(=NS(C)(=O)=O)NCCSCc1nccc(NC(N)=NCC(F)(F)F)n1` yielded a melting point of 148 to 149 °C.

As for `CC(C)(C)C(=O)c1c[nH]c2ncc(-c3ccc(C(=O)NC4CCCC4)s3)nc12`, the melting point is > 300 °C.

Consider `COC(=O)c1cccc2cc(-c3ccc(N)cc3)oc12`, for which the melting point lay within 158 to 161 °C.

Take `CC1(CC(=O)O)CCc2ccc3ccccc3c2C1=O` (centres undefined): the melting point is 80 to 83 °C.

`COc1ccc(C(=O)Nc2ccc3ccc(SC)nc3n2)cc1` had a melting point of 130 °C.

In turn, `O=C(O)c1cc(=O)c2ccc(OCCCCCOc3ccc4c(=O)ccoc4c3)cc2o1` had a melting point of 113 to 116 °C.

`O=C(c1cccc(OCCCN2C(=O)c3ccccc3C2=O)c1)N1CCCCC1` yielded a melting point of 120 to 122 °C.

The compound `O=C(c1cc2cc3[nH]c(=O)oc3cc2[nH]1)N1CCC(Cc2ccccc2)CC1` had a melting point of 270 to 271 °C.

`ClCCOc1ccc(/C=C/c2nc3ccccc3s2)cc1` yielded a melting point of 92 to 94 °C.

Compound `Cc1cccc(CCC(O)(P(=O)(O)O)P(=O)(O)O)c1N` had a melting point of 133 °C.

`COc1ccc(C=CC(=O)N(C)O)cc1OC`: the melting point was 150 °C.

As to `CC(=O)N1CCC(CCC(=O)c2ccc3c(c2)CCO3)CC1`, the melting point was in the range of 93 to 95 °C.
